# According to patent US20230389542A1, “USE OF [(1,5-DIPHENYL-1H-PYRAZOL-3-YL)OXY] ACETIC ACID DERIVATIVES AND THEIR SALTS AND COMPOSITIONS CONTAINING THEM, FOR REDUCING PHYTOTOXIC EFFECTS OF AGROCHEMICALS, IN PARTICULAR OF HERBICIDES, IN USEFUL PLANTS AND CROP PLANTS” (BAYER AKTIENGESELLSCHAFT, priority 2020, published 2023):
# Experiments:
# [1] = test system: summer wheat (TRZAS; cv. Triso); assay: Relative action (efficacy code): reduction of damage by mesosulfuron-methyl on summer wheat; format: in vivo; set-up: key: 0: no reduction in damage (appearance corresponding to the herbicide control); 1: slight reduction in damage; 2: distinct reduction in damage; 3: significant reduction in damage; 4: complete reduction in damage (appearance corresponding to the untreated control); details: visual, 9-13 days after application
# Protocol: 2.3 Relative Action of Selected Compounds of the Invention Using the Example of Reduction of Damage by Mesosulfuron-Methyl on Summer Wheat (TRZAS) The seeds of the crop plants to be treated are laid out in sandy loam in plastic pots (diameter μ4 cm), covered with soil and grown in a greenhouse under good conditions for germination and growth. The trial plants were treated at the early leaf stage (BBCH10-BBCH12). In the course of this, the inventive compounds of the general formula (I) formulated in the form of wettable powders (WP) were sprayed onto the above-ground parts of the plants as an aqueous suspension with a water application rate corresponding to 800 l/ha with addition of wetting agent (e.g. 0.2% Genapol-LRO or 0.2% Mero) in the specified dose. This was followed by the application of the herbicide. For this purpose, mesosulfuron-methyl, formulated in the form of water-dispersible granules (WG), was sprayed onto the above-ground parts of the plants in the form of an aqueous dispersion with a water application rate corresponding to 800 l/ha with addition of wetting agent (e.g. 0.2% Genapol-LRO or 1 l/ha Biopower) in a dose of 40-60 g/ha. The dose of the herbicide was chosen here such that it causes visually apparent damage (min. 30%, max. 75%) compared to untreated crop plants at the evaluation time on a control group of crop plants without safener treatment that were included in the same trial. After application, the plants were cultivated under good growth conditions in a greenhouse. 9-13 days after application, the efficacy of the test compounds was assessed visually. For this purpose, the appearance of the plants treated with the test compound and herbicide was compared to the corresponding herbicide controls (without safener; with clearly visible damage) and the untreated controls (without damage). The damage-reducing effect of the test compounds was expressed here in graded efficacy codes according to the following scheme: • 0: no reduction in damage (appearance corresponding to the herbicide control) • 1: slight reduction in damage • 2: distinct reduction in damage • 3: significant reduction in damage • 4: complete reduction in damage (appearance corresponding to the untreated control) The trials show clear efficacy of the inventive compounds selected by way of example with regard to the reduction in damage to the summer wheat crop plant (TRZAS; cv. Triso) caused by the herbicide mesosulfuron-methyl: […]
# [2] = test system: summer barley (HORVS; cv. Montoya); assay: Relative action (efficacy code): reduction of damage by mesosulfuron-methyl on summer barley; format: in vivo; set-up: key: 0: no reduction in damage (appearance corresponding to the herbicide control); 1: slight reduction in damage; 2: distinct reduction in damage; 3: significant reduction in damage; 4: complete reduction in damage (appearance corresponding to the untreated control); details: visual, 9-13 days after application, 2 repeats coded separately
# Protocol: 2.4 Relative Action of Selected Compounds of the Invention Using the Example of Reduction of Damage by Mesosulfuron-Methyl on Summer Barley (HORVS) The seeds of the crop plants to be treated are laid out in sandy loam in plastic pots (diameter˜4 cm), covered with soil and grown in a greenhouse under good conditions for germination and growth. The trial plants were treated at the early leaf stage (BBCH10-BBCH12). In the course of this, the inventive compounds of the general formula (I) formulated in the form of wettable powders (WP) were sprayed onto the above-ground parts of the plants as an aqueous suspension with a water application rate corresponding to 800 l/ha with addition of wetting agent (e.g. 0.2% Genapol-LRO or 0.2% Mero) in the specified dose. This was followed by the application of the herbicide. For this purpose, mesosulfuron-methyl, formulated in the form of water-dispersible granules (WG), was sprayed onto the above-ground parts of the plants in the form of an aqueous dispersion with a water application rate corresponding to 800 l/ha with addition of wetting agent (e.g. 0.2% Genapol-LRO or 1 l/ha Biopower) in a dose of 40-60 g/ha. The dose of the herbicide was chosen here such that it causes visually apparent damage (min. 30%, max. 75%) compared to untreated crop plants at the evaluation time on a control group of crop plants without safener treatment that were included in the same trial. After application, the plants were cultivated under good growth conditions in a greenhouse. 9-13 days after application, the efficacy of the test compounds was assessed visually. For this purpose, the appearance of the plants treated with the test compound and herbicide was compared to the corresponding herbicide controls (without safener; with clearly visible damage) and the untreated controls (without damage). The damage-reducing effect of the test compounds was expressed here separately for 2 repeats in graded efficacy codes according to the following scheme: • 0: no reduction in damage (appearance corresponding to the herbicide control) • 1: slight reduction in damage • 2: distinct reduction in damage • 3: significant reduction in damage • 4: complete reduction in damage (appearance corresponding to the untreated control) The trials show clear efficacy of the inventive compounds selected by way of example with regard to the reduction in damage to the summer barley crop plant (HORVS; cv. Montoya) caused by the herbicide mesosulfuron-methyl: […]
# [3] = safener 100 g/ha + mesosulfuron-methyl 40-60 g/ha
# [4] = safener 500 g/ha + mesosulfuron-methyl 40-60 g/ha
SMILES,"Efficacy of the safener (efficacy code) [1, 3]","Efficacy of the safener (efficacy code) [1, 4]","Efficacy of the safener (efficacy code) [2, 4]","Efficacy of the safener (efficacy code) [2, 3]"
CCOC(=O)COc1cc(-c2ccc(F)cc2)n(-c2ccc(Cl)cc2Cl)n1 [I.11-32],2,2,2,
COC(=O)COc1cc(-c2ccc(F)cc2F)n(-c2ccc(Cl)cc2F)n1 [I.40-49],3,3,2-3,2
CCOC(=O)COc1cc(-c2ccc(F)cc2F)n(-c2ccc(Cl)cc2F)n1 [I.41-49],3,4,2,2
O=C(O)COc1cc(-c2ccc(F)cc2F)n(-c2ccc(Cl)cc2F)n1 [I.42-49],3,4,3,2-3
CCOC(=O)COc1cc(-c2ccc(Cl)cc2F)n(-c2ccc(F)cc2Cl)n1 [I.47-48],3,4,3,2
CCOC(=O)COc1cc(-c2ccc(Cl)cc2F)n(-c2ccc(Cl)cc2F)n1 [I.47-49],,3,3,2
CCOC(=O)COc1cc(-c2ccc(F)cc2Cl)n(-c2ccc(Cl)cc2F)n1 [I.50-49],2,3,3,2-3
